Molecules are shown by their SMILES. Bounds are passed on as bounds.

One assay relates to purified human Hsp90. Description: Binding Assay: fluorescence polarization with BODIPY-labeled geldanamycin. Particulars: 5 μM compound, BODIPY-GM 10 nM, Hsp90 30 nM. The essentials:
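Compounds in 2% DMSO final compete with 10 nM BODIPY-GM for 30 nM purified human Hsp90, incubated overnight at room temperature in pH 7.3 HEPES buffer containing Na2MoO4 and DTT. Polarization (mP, ex/em 485/530) normalized to DMSO gives percent inhibition; autofluorescence-confounded data excluded.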
For `CS(=O)(=O)NC(CCn1cnc(N)c2nc(Sc3cc4c(cc3Br)OCO4)nc1-2)C1CC1` (stereo not shown) [Example 675, N-(3-{6-Amino-8-[(6-bromo-1,3-benzodioxol-5-yl)thio]-3H-purin-3-yl}-1-cyclopropylpropyl)methanesulfonamide], the % Inhibition – broadly, the percentage by which the read-out fell short of the control – at 5 μM Compound Concentration came to 49%.

On to `COc1ccc(OC)c(Sc2nc3c(N)ncn(CC(c4ccccc4)C4CCCC4)c-3n2)c1` (stereo not shown) [Example 104, 3-(2-cyclopentyl-2-phenyl-ethyl)-8-(2,5-dimethoxy-phenylsulfanyl)-3H-purin-6-ylamine], for which the “% Inhibition at 5 μM Compound Concentration” value (from here on “% Inhibition”) turned out to be 38%.

In the case of `Cc1ccc(CCn2c(Sc3cc4c(cc3Br)OCO4)nc3c(N)ncnc32)cc1` [Example 163, 8-(6-Bromo-benzo[1,3]dioxol-5-ylsulfanyl)-9-(2-p-tolyl-ethyl)-9H-purin-6-ylamine], the “% Inhibition” value is more than 10%.

As to `COc1ccc(OC)c(Sc2nc3c(N)ncnc3n2CC(O)c2ccc(Cl)cc2Cl)c1` (stereo not shown) [Example 107, 2-[6-Amino-8-(2,5-dimethoxy-phenylsulfanyl)-purin-9-yl]-1-(2,4-dichloro-phenyl)ethanol], the “% Inhibition” value is given as 0%.

Turning to `CCC(C)C(Cn1cnc(N)c2nc(Sc3cc(OC)ccc3OC)nc1-2)c1ccccc1` (stereo not shown) [Example 106, 8-(2,5-dimethoxy-phenylsulfanyl)-3-(3-methyl-2-phenyl-pentyl)-3H-purin-6-ylamine], the “% Inhibition” value was found to be 41%.

Regarding `CC(C)(C)OC(=O)N1CCC[C@H]1C(=O)N1CCC(CCn2cnc(N)c3nc(Sc4cc5c(cc4Br)OCO5)nc2-3)CC1` [Example 731, tert-Butyl(2S)-2-{[4-(2-{6-amino-8-[(6-bromo-1,3-benzodioxol-5-yl)thio]-3H-purin-3-yl}ethyl)piperidin-1-yl]carbonyl}pyrrolidine-1-carboxylate], the “% Inhibition” value worked out at 1.0%.

Turning to `COc1ccc(OC)c(Sc2nc3c(N)ncn(CCC4CCOCC4)c-3n2)c1` [Example 349, 8-[(2,5-Dimethoxyphenyl)thio]-3-[2-(tetrahydro-2H-pyran-4-yl)ethyl]-3H-purin-6-amine], the “% Inhibition” value is given as 12%.

`COc1cccc(Sc2nc3c(N)ncn(CC(=O)c4ccccc4)c-3n2)c1` [Example 299, 2-{6-Amino-8-[(3-methoxyphenyl)thio]-3H-purin-3-yl}-1-phenylethanone]: the “% Inhibition” value was 0.0%.

Take `CC(C)(C)OC(=O)Nc1ccc(CCn2cnc(N)c3nc(Sc4cc5c(cc4Br)OCO5)nc2-3)cc1` [Example 212, (4-{2-[6-amino-8-(6-bromo-benzo[1,3]dioxol-5-ylsulfanyl)-purin-3-yl]-ethyl}-phenyl)carbamic acid tert-butyl ester]: the “% Inhibition” value turned out to be 4%.

As for `CC(C)(C)OC(=O)NC(CCn1cnc(N)c2nc(Sc3cc4c(cc3Br)OCO4)nc1-2)C1CC1` (stereo not shown) [Example 663, tert-butyl (3-{6-amino-8-[(6-bromo-1,3-benzodioxol-5-yl)thio]-3H-purin-3-yl}-1-cyclopropylpropyl)carbamate], the “% Inhibition” value is reported as 15%.

Still in this assay, the particulars now being: BODIPY-GM 10 nM, Hsp90 30 nM.
Regarding `COC(=O)[C@H](CCSC)NC(=O)N1CCC(CCn2c(Sc3cc4c(cc3Br)OCO4)nc3c(N)ncnc32)CC1` [Example 505, Methyl N-{[4-(2-{6-amino-8-[(6-bromo-1,3-benzodioxol-5-yl)thio]-9 H-purin-9-yl}ethyl)piperidin-1-yl]carbonyl}-L-methioninate], the IC50 (in general, the point on the concentration scale where inhibition reaches its midpoint) is 85 nM.

For `Nc1ncnc2c1nc(Sc1cc3c(cc1Br)OCO3)n2CCC1CCN(C(=O)NCCCC(=O)O)CC1` [Example 502, 4-({[4-(2-{6-Amino-8-[(6-bromo-1,3-benzodioxol-5-yl)thio]-9 H-purin-9-yl}ethyl)piperidin-1-yl]carbonyl}amino)butanoic acid], the 50% inhibitory concentration (IC50) was determined as 140 nM.

Molecule `COc1ccc(OC)c(Sc2nc3c(N)ncn(CCc4ccccc4)c-3n2)c1` [Example 2, 8-(2,5-dimethoxy-phenylsulfanyl)-3-phenethyl-3H-purin-6-ylamine] yielded an IC50 of 3470 nM. This IC50 is about 25-fold higher than that of the molecule before.

`COc1ccc([N+](=O)[O-])cc1Sc1nc2c(N)ncnc2n1CCc1ccccc1Cl` [Example 318, 9-[2-(2-Chlorophenyl)ethyl]-8-[(2-methoxy-5-nitrophenyl)thio]-9H-purin-6-amine] showed a half-inhibitory concentration (IC50) of 7000 nM.

Take `Nc1ncnc2c1nc(Sc1cc3c(cc1Br)OCO3)n2CCC1CCN(C(=O)[C@@H]2CCCCN2)CC1` [Example 754, 8-[(6-Bromo-1,3-benzodioxol-5-yl)thio]-9-(2-{1-[(2S)-piperidin-2-ylcarbonyl]piperidin-4-yl}ethyl)-9H-purin-6-amine]: the IC50 was 50 nM.

`Nc1ncnc2c1nc(Sc1cc3c(cc1Br)OCO3)n2CCC1CCN(Cc2ccccc2)CC1` [Example 599, 9-[2-(1-Benzylpiperidin-4-yl)ethyl]-8-[(6-bromo-1,3-benzodioxol-5-yl)thio]-9 H-purin-6-amine] displayed a 50% inhibitory concentration (IC50) of 260 nM. Against the preceding molecule, the IC50 is about 5.2-fold higher.

In turn, `COC(=O)CCCNC(=O)N1CCC(CCn2c(Sc3cc4c(cc3Br)OCO4)nc3c(N)ncnc32)CC1` [Example 500, Methyl 4-({[4-(2-{6-amino-8-[(6-bromo-1,3-benzodioxol-5-yl)thio]-9H-purin-9-yl}ethyl)piperidin-1-yl]carbonyl}amino)butanoate] showed an IC50 of 60 nM. This IC50 lies about 4.3-fold lower than the previous one.

Take `Nc1ncnc2c1nc(Sc1cccc(OC(F)F)c1)n2CCc1ccccc1Cl` [Example 258, 9-[2-(2-Chlorophenyl)ethyl]-8-{[3-(difluoromethoxy)phenyl]thio}-9H-purin-6-amine]: the concentration for half-maximal inhibition (IC50) is more than 25000 nM.

Turning to `CC(=O)N1CCC(CCn2c(Sc3ccc4c(c3)OC(F)(F)O4)nc3c(N)ncnc32)CC1` [Example 571, 9-[2-(1-Acetylpiperidin-4-yl)ethyl]-8-[(2,2-difluoro-1,3-benzodioxol-5-yl)thio]-9 H-purin-6-amine], the IC50 is more than 5000 nM.

With `C[C@@H](N)C(=O)N1CCC[C@@H](CCn2c(Sc3cc4c(cc3Br)OCO4)nc3c(N)ncnc32)C1` [Example 755, 9-(2-{(3S)-1-[(2R)-2-Aminopropanoyl]piperidin-3-yl}ethyl)-8-[(6-bromo-1,3-benzodioxol-5-yl)thio]-9H-purin-6-amine], the half-inhibitory concentration (IC50) amounted to 140 nM.

Molecule `Nc1ncnc2c1nc(Sc1ccc(NC=O)c(O)c1)n2CCc1ccccc1` [Example 267, N-(4-{[6-Amino-9-(2-phenylethyl)-9H-purin-8-yl]thio}-2-hydroxyphenyl)formamide] displayed a half-maximal inhibitory concentration (IC50) of more than 25000 nM.

As to `Nc1ncnc2c1nc(Sc1cc3c(cc1Br)OCO3)n2CC(c1ccccc1)C1CCCC1` (stereo not shown) [Example 101, 8-(6-Bromo-benzo[1,3]dioxol-5-ylsulfanyl)-9-(2-cyclopentyl-2-phenyl-ethyl)-9H-purin-6-ylamine], the IC50 was more than 3000 nM.

Molecule `Nc1ncnc2c1nc(Sc1cc3c(cc1Br)OCO3)n2CCC1CCN(C(=O)OCc2ccccc2)CC1` [Example 409, Benzyl 4-(2-{6-amino-8-[(6-bromo-1,3-benzodioxol-5-yl)thio]-9H-purin-9-yl}ethyl)piperidine-1-carboxylate] displayed an IC50 of 130 nM.

For `COc1ccc(OC)c(Sc2nc3c(N)ncnc3n2CCC2C(=O)NN=C2C)c1` (stereo not shown) [Example 407, 4-(2-{6-Amino-8-[(2,5-dimethoxyphenyl)thio]-9H-purin-9-yl}ethyl)-5-methyl-2,4-dihydro-3H-pyrazol-3-one], the IC50 is more than 25000 nM.

For the molecule `Nc1ncnc2c1nc(Sc1cc3c(cc1Br)OCO3)n2CCC1CCCCN1C(=O)OCc1ccccc1` (stereo not shown) [Example 592, Benzyl 2-(2-{6-amino-8-[(6-bromo-1,3-benzodioxol-5-yl)thio]-9 H-purin-9-yl}ethyl)piperidine-1-carboxylate], the half-inhibitory concentration (IC50) was more than 5000 nM.

The molecule `COc1ccc(OC)c(Sc2nc3c(N)ncnc3n2CCc2cc(OC)c(OC)c(OC)c2)c1` [Example 89, 8-(2,5-Dimethoxy-phenylsulfanyl)-9-[2-(3,4,5-trimethoxy-phenyl)-ethyl]-9H-purin-6-ylamine] registered an IC50 of more than 10000 nM.

The molecule `COc1ccc(OC)c(Sc2nc3c(N)ncnc3n2CCC2CCN(C=O)CC2)c1` [Example 358, 4-(2-{6-Amino-8-[(2,5-dimethoxyphenyl)thio]-9H-purin-9-yl}ethyl)piperidine-1-carbaldehyde] had an IC50 of 450 nM. This lies in the sub-micromolar range.

In the case of `CC(C)(C)OC(=O)N[C@H]1CC[C@@H](CCn2c(Sc3cc4c(cc3Br)OCO4)nc3c(N)ncnc32)CC1` [Example 398, tert-Butyl [cis-4-(2-{6-amino-8-[(6-bromo-1,3-benzodioxol-5-yl)thio]-9H-purin-9-yl}ethyl)cyclohexyl]carbamate], the IC50 amounted to 140 nM.

On to `COc1ccc(OC)c(Sc2nc3c(N)ncnc3n2CCc2ccc(-c3ccccc3)cc2)c1` [Example 181, 9-(2-Biphenyl-4-yl-ethyl)-8-(2,5-dimethoxy-phenylsulfanyl)-9H-purin-6-ylamine], for which the IC50 is more than 25000 nM.

`COc1ccc(OC)c(Sc2nc3c(N)ncnc3n2CCC2CCCN(C(=O)OC(C)(C)C)C2)c1` (stereo not shown) [Example 347, tert-Butyl 3-(2-{6-amino-8-[(2,5-dimethoxyphenyl)thio]-9H-purin-9-yl}ethyl)piperidine-1-carboxylate] displayed a half-maximal inhibitory concentration (IC50) of 2500 nM.

`COc1ccc(OC)c(Sc2nc3c(N)ncnc3n2CCc2cc(F)cc(F)c2)c1` [Example 143, 9-[2-(3,5-Difluoro-phenyl)-ethyl]-8-(2,5-dimethoxy-phenylsulfanyl)-9H-purin-6-ylamine] showed a concentration for half-maximal inhibition (IC50) of more than 3000 nM.

On to `Nc1ncnc2c1nc(Sc1cc3c(cc1Br)OCO3)n2CCc1ccccc1` [Example 13, 8-(6-Bromo-benzo[1,3]dioxol-5-ylsulfanyl)-9-phenethyl-9H-purin-6-ylamine], for which the IC50 worked out at 45 nM.

`COc1ccc(OC)c(Sc2nc3c(N)ncnc3n2CCc2cccc(OC(F)(F)F)c2)c1` [Example 217, 8-(2,5-Dimethoxy-phenylsulfanyl)-9-[2-(3-trifluoromethoxy-phenyl)-ethyl]-9H-purin-6-ylamine] registered an IC50 of more than 10000 nM.

Consider `CCC(Cn1c(Sc2cc3c(cc2Br)OCO3)nc2c(N)ncnc21)c1ccccc1` (stereo not shown) [Example 57, 8-(6-Bromo-benzo[1,3]dioxol-5-ylsulfanyl)-9-(2-phenyl-butyl)-9H-purin-6-ylamine], for which the IC50 was 400 nM.
